# From paper PMC13081163, “Discovery of a novel Nrf2 activator that modulates mitochondrial function in neurons by regulating DHRS3-Nrf2 interaction after ischemic stroke” (Theranostics, 2026)
# What was measured:
# primary cortical neurons = assay: OGD/R damage in primary cortical neurons (CCK-8); type: cell-based, rat
# Procedure: To mimic ischemic conditions in vitro, cells were washed with PBS and then cultured for 2.5 h at 37 °C in glucose-free medium under anaerobic conditions (5% hydrogen, 90% nitrogen, and 5% carbon dioxide). OGD process was terminated by transferring cells back to normal glucose-containing medium under normoxic conditions (5% CO₂, 37 °C) and maintained for 24 h.
# In the administration group, cells were exposed for 12 h with Cpd.51 prior to OGD. OGD lasted for 2.5 h and the reperfusion lasted for 24 h before the experiment was concluded. Subsequently, cell viability was determined using the cell counting kit-8 (CCK-8, C0039, Beyotime, China). In the experiment to explore the treatment time window, the only difference was the timing of the Cpd.51 treatment, while all other procedures remained unchanged.
# Rat primary neuronal cells collected from the cerebral cortices of embryos (embryonic day 18) from pregnant SD rats were isolated and cultured. In brief, the cerebral cortex tissue of […] was removed and cut into small pieces using ophthalmic curved shears. The tissue was repeatedly pipetted after the addition of preheated 0.25% Trypsin digestive solution (BR00083, ABclonal, China). Finally, twice the volume of the culture medium was added and terminated the digestion to complete the extraction of primary cortical cells. […]
# Nrf2 = Nrf2 (Homo sapiens, UniProt Q14145); assay: Nrf2 nuclear translocation by immunofluorescence; type: cell-based; settings: 100 nM, SH-SY5Y cells and primary cortical neurons
# Nrf2, sequence (Q14145 whole entry): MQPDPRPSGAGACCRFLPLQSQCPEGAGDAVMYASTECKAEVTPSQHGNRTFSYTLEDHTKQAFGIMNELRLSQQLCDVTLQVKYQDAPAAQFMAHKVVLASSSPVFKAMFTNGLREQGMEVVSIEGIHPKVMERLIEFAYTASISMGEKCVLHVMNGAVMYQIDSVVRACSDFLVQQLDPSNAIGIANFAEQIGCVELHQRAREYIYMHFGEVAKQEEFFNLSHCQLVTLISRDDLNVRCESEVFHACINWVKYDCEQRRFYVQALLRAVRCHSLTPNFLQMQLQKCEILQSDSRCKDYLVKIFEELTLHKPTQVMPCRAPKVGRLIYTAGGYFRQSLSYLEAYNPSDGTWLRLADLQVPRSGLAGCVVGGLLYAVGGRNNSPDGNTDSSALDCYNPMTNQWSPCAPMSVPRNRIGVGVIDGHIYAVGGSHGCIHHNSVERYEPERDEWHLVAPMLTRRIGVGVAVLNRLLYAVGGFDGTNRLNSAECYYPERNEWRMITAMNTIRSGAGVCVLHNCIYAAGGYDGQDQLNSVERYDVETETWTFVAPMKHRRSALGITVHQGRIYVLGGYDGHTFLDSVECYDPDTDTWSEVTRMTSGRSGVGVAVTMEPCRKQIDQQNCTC
# Nrf2, sequence (Q16236 whole entry, further chain): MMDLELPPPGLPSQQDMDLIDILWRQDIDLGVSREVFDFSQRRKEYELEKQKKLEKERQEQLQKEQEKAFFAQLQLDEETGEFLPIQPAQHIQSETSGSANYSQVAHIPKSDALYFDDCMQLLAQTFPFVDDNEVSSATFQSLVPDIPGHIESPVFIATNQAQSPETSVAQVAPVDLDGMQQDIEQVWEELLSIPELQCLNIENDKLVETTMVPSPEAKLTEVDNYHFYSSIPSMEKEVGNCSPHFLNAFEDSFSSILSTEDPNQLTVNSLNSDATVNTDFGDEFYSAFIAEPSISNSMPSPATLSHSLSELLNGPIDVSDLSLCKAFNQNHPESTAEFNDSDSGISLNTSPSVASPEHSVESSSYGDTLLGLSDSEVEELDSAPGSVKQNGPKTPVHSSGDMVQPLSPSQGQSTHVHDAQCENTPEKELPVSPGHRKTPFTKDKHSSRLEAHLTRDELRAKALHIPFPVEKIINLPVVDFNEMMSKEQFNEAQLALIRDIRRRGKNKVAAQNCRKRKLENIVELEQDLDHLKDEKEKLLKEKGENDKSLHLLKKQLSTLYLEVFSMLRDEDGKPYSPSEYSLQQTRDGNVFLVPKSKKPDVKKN
# Procedure: Immunostaining: cells were fixed with 4% paraformaldehyde for 20 min and then incubated with blocking solution (10% normal goat serum, 0.5% Triton X-100 in PBS) for 1 h at room temperature. Then, the samples were incubated overnight with primary antibodies: anti-Nrf2 (1:200, CST), anti-DHRS3 (1:300, Proteintech), anti-NeuN (1:500, Servicebio). When evaluating the extraction efficiency of primary cortical neurons, we performed co-staining with β-tubulin (1:200, Abcam) and Synaptophysin (1:300, ABclonal). After being washed with PBST three times, the samples were incubated with the corresponding secondary antibodies for 2 h in the dark. The nuclei were stained with DAPI (C1006-200mL, Beyotime, China) for 20 min. Finally, images were captured with a fluorescence microscope. Fluorescence integrated density was measured by ImageJ as previously described.
# [1] = tested on: rat transient Middle Cerebral Artery Occlusion (tMCAO) model; assay: Rat tMCAO model, acute phase (TTC, mNSS, peri-infarct cortex); type: in vivo
# Procedure: Cpd.51 was dissolved in solvent (10% DMSO, 10% Solutol HS-15 and 80% saline). It was injected (i.v.) at dose of 3 mg/kg or 5 mg/kg in a 0.5 mL volume. The Sham group and Vehicle group were treated simultaneously with an equal volume of solvent. In the experiment to explore the treatment time window, we merely administered the drug to the rats at different time points, while all other procedures remained unchanged. In the short-term toxicity study, 10 mg/kg Cpd.51 and Oma were administered via tail vein injection at 0.5 mL daily for 7 consecutive days.
# All rats were fasted for more than 12 h before the operation began. Transient focal cerebral ischemia was induced by middle cerebral artery occlusion (MCAO) in rat, as previously described, [29]. In short, after anesthetizing the rats with 2.5% tribromoethanol, the right common carotid artery (CCA), external carotid artery (ECA), and internal carotid artery (ICA) were isolated. […] The body temperature of the animals was maintained between 36.5 °C and 37.5 °C.
# After the behavioral assessments, rats were euthanized and the brain harvested. Brain tissue was cut into five coronal sections (2 mm thick) and incubated in 2% TTC (298-96-4, TCI, Japan) for 20 min at 37 °C. The volume of ischemic brain injury was measured using ImageJ (US National Institutes of […], Bethesda, MD, USA).
# To assess the degree of neurological impairment, we conducted modified Neurological Severity Score (mNSS) according to previous experience. The investigator was blinded to the grouping situation during the whole experiment.
# The anesthetized-animals were transcardially perfused with 0.9% saline in vivo. The ischemic penumbral tissue was isolated from rats and grinded in PBS. Similarly, in vitro, the cells were digested with pancreatic enzymes and placed in PBS. Next, repeatedly freeze and thaw three times in liquid nitrogen and 37 °C water. Sample supernatant was taken for testing according to the MDA or GSH assay kit instructions (S0131M or S0053, Beyotime, China).
# Brain tissue was fixed with 4% paraformaldehyde and immersed in 15% sucrose and 30% sucrose at 4 °C overnight. Coronal brain sections (thickness = 20 μm) were incubated with blocking solution for 1.5 h at room temperature followed by incubation with primary antibodies: anti-Nrf2 (1:200, CST), anti-DHRS3 (1:300, Proteintech), anti-NeuN (1:500, Servicebio), anti-GFAP (1:500, Abcam) and anti-Iba-1 (1:500, Abcam). Subsequent immunostaining assays were performed as previously described of cells.
# [2] = target: T1, Keap1 BTB domain (48-180) (Homo sapiens, UniProt Q14145); assay: SPR binding to truncated Keap1 (48-180); settings: read-out: KD, Keap1 BTB domain fragment
# T1 construct: truncated form of Keap1 (residues 48-180 and residues 48-149)
# T1 sequence (Q14145 48-180): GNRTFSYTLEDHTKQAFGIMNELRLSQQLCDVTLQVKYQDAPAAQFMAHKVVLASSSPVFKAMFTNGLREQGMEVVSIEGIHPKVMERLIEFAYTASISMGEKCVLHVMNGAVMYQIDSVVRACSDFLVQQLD
# Procedure: (§1) The binding affinity of Cpd.51 or Oma to Keap1 proteins were measured using a Biacore T200. The overall experimental procedures were based on previous reports, [28]. Human recombinant Keap1 proteins or truncated form of Keap1 (residues 48-180 and residues 48-149) were captured on a CM5 chip by a standard amine coupling procedure. Binding sensorgrams were recorded by injecting various concentrations of Cpd.51 over the immobilized proteins surface. The dissociation constant was obtained by globally fitting the data (to the 1:1 Langmuir binding model using the Biacore Insight evaluation software (Cytiva, Marlborough, MA, USA). Affinity tests for Cpd.51 and DHRS3 were also performed using the aforementioned method.
# [3] = target: Keap1 BTB domain fragment (48-149) (Homo sapiens, UniProt Q14145); assay: SPR binding to truncated Keap1 (48-149)
# Keap1 BTB domain fragment (48-149), sequence (Q14145 48-149): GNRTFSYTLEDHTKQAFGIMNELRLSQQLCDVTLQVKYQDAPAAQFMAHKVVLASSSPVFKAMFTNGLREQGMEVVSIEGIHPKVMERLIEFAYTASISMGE
# Procedure: as §1
# [4] = 5 mg/kg i.v. at 4 h post-ischemia, read at 24 h
compound,measurement,setting,value
CC1(C)CCC2(C(=O)NO)CCC3(C)C(C(=O)C=C4C5(C)C=C(C#N)C(=O)C(C)(C)C5CCC43C)C2C1 (centres unmarked) [Cpd.51],efficacy in OGD/R-induced primary neuronal damage,primary cortical neurons,excellent efficacy
same,Nrf2 nuclear translocation,Nrf2,Nrf2 nuclear translocation within 15 min
same,area of infarction (TTC),[1]; 3 mg/kg and 5 mg/kg i.v. at the same time as ischemia,significantly reduced the area of infarction
same,"infarction volume, delayed administration",[1]; [4],significantly diminished infarction volume
same,"mNSS scores, delayed administration",[1]; [4],improved mNSS scores
same,"Nrf2, HO-1 and NQO1 protein levels in peri-infarct cortex","[1]; 24 h post tMCAO, immunoblotting",significantly upregulated
same,"cell type of Nrf2 enrichment (co-staining NeuN, GFAP, Iba-1)","[1]; peri-infarct region, 24 h after ischemia",Nrf2 was selectively enriched in neurons
same,mNSS scores,"[1]; tMCAO rats, i.v.",significantly inhibited the increase in mNSS scores
same,GSH and MDA in cortical tissues,"[1]; tMCAO rats, peri-infarct cortex",restoring GSH concentrations and suppressing MDA accumulation
same,Kd,[2],31.3 µM
same,Kd,[3],67.2 µM
